Patent EP0821003B1, “PEPTIDES AND REMEDY FOR AUTOIMMUNE DISEASES COMPRISING THE SAME” (Aventis Pharma Ltd., priority 1995, dated 2003)
Non-standard residues stand in square brackets, D forms with d. Residues, ends and D or L forms follow the SMILES beside them. No end group written: not given here.

Legend:
[1] = tested on: anti-OVA antibody production; experiment: Suppressive effect on anti-OVA antibody production in mice (ELISA of serum IgG); type: in vivo, Balb/c mice; parameters: Anti OVA Ig-G antibody titer (unit): dose or concentration left out as unconfirmed; details: for Anti-OVA antibody titer: in a similar manner to Example 2
Method: Day 5 and day 3 prior to the antigen administration, Peptide (I) composed of 9 amino acid residues as indicated by Sequence ID No. 1 in the Sequence Listing of the present invention and a synthetic peptide 15 composed of 15 amino acid residues derived from clone 17.2 TcR, which peptide had been reported by Mohapatra et al. as described above, 100 g each, were dissolved in 200 of physiological saline and each solution thus obtained was subcutaneously administered to 9-week-old Balb/c mice. As a control, a non-administered group to which the same amount of physiological saline was administered was employed. In 200 I of physiological saline, 100 g of OVA (Sigma Chemical Co.) were dissolved, followed by subcutaneous administration. Blood was collected on day 21 after antigen administration and an antibody titer was measured by the method described below.
OVA was diluted to 10 µg/ml with phosphate buffered saline (PBS) and 50 I portions of the solution were poured in a 96-well microplate. The coating operation was conducted overnight at […]. The microplate was then washed three times with a 0.05% Tween-20-containing PBS (T-PBS). 200 portions of 0.5% casein-containing tris buffered physiological saline (casein TBS) were poured in each well and the microplate was allowed to stand at room temperature for one hour. The microplate was then washed three times with T-PBS. After the serum of the blood collected from the mice was diluted to 1/200 with 0.5% casein TBS, 50 I portions of the diluted serum were poured in each well and the plate was allowed to stand for one hour (primary reaction).
After the completion of the primary reaction, the microplate was washed three times with T-PBS. Fifty I portions of anti-mouse IgG-peroxidase-labeled antibody (TAGO Co.) diluted to 1/4000 with 0.5% casein TBS were poured in each well, followed by reaction at room temperature for one hour (secondary reaction). After the completion of the secondary reaction, the plate was washed three times again. Fifty I portions of a substrate liquid/chromogen (chromogen substrate: Behringwerke AG) were poured in each well, followed by reaction at room temperature for 30 minutes. After the completion of the reaction, 0.5N diluted sulfuric acid was added to terminate the reaction and an absorbance at 450 nm was measured by a colorimeter ("BEP-II", product of Behringwerke AG/Germany) with an absorbance at 650 nm as a control.
In a similar manner to Example 2, the suppressive effects of Peptides (I), (VII) to (XIV) on the anti-OVA antibody production in mice were measured.

[2] = tested on: anti-KLH antibody production; experiment: Suppressive effect on anti-KLH antibody production in mice (ELISA of serum IgG); type: in vivo, Balb/c mice; details: for antibody production (anti-KLH) / Anti-KLH antibody titer (unit ± SD): Example 7; for Anti-KLH antibody titer (unit ± SD): in a similar manner to Example 3; for Anti-KLH antibody titer (unit ± SD) / Anti-KLH IgG antibody titer (unit ± SD): 8 mice per group; for Anti-KLH IgG antibody titer (unit ± SD): Example 3, 100 µg subcutaneously day 5 and day 3 prior to KLH, blood day 21 after antigen
Method: Day 5 and day 3 prior to the antigen administration, 100 µg of each Peptide (I) to (VI) of the present invention composed of 9 amino acid residues indicated by Sequence ID No. 1 in the Sequence Listing were dissolved in 200 µl of physiological saline. The resulting solution was subcutaneously administered to 9-week-old Balb/c mice. As a control, a non-administered group to which the same amount of physiological saline was administered was employed. In 200 µl of physiological saline, 25 µg of KLH were dissolved as an antigen and the resulting solution was subcutaneously administered. The blood was collected on day 21 after antigen administration and an antibody titer was measured by the method which is described below.
KLH was diluted to 10 µg/ml with a phosphate buffered physiological saline (PBS). Fifty µl portions of the resulting solution were poured into a 96-well microplate and the plate was allowed to stand at 4iC overnight. After the microplate was washed three times with 0.05% Tween-20-containing PBS (T-PBS), 200 µl portions of 0.5% casein tris-buffered physiological saline (casein TBS) were poured into wells, respectively. […] The microplate was washed three times with T-PBS and 50 µl portions of the mouse serum diluted to 1/200 with casein TBS were poured into the wells, followed by reaction for one hour (primary reaction).
The resulting microplate was washed three times with T-PBS, to which 50 µl portions of an anti-mouse IgG-peroxidase-labeled antibody (TAGO Co.) diluted to 1/4000 with casein TBS were poured. The reaction was effected at room temperature for one hour (secondary reaction). After the completion of the secondary reaction, the plate was washed three times again. Fifty µl portions of a substrate liquid/chromogen (chromogen substrate: Behringwerke AG) were poured into wells, respectively, followed by reaction at room temperature for 30 minutes. After the completion of the reaction, 0.5N diluted sulfuric acid was added to terminate the reaction and an absorbance at 450 nm was measured by a colorimeter ("BEP-II", product of Behringwerke AG/Germany) with the absorbance at 650 nm as a control.
In a similar manner to Example 3, suppressive effects of Peptides (I), (VII) to (XV) on anti-KLH antibody production in mice were studied.

EAE model mice = experiment: Onset suppressive effect on EAE model mice (clinical score); type: in vivo, SJL mouse; parameters: key to average score ± SD: EAE onset score per Pettinelli et al. 1982 criteria; details: for average score ± SD: score 0-6
Method: As an antigen, guinea pig spinal chord homogenate was employed. The guinea pig spinal chord homogenate was diluted with PBS to be 6.6 mg/ml, followed by the addition of the equivalent amount of Freund ? s complete adjuvant. The resulting mixture was formed into an emulsion by an ultrasonic sonicator. The resulting emulsion was administered to two areas under the lateral skin in a total amount of 300 µl. Day 5 and day 3 prior to antigen administration, and 5 days a week for 4 weeks after antigen administration, the solution of Peptide (I) dissolved in 100 µl physiological saline was subcutaneously administered to a 14-week old SJL mouse. Incidentally, in order to increase an onset ratio, […] of pertussis toxin (PTX) were intravenously administered as an enhancer on the day of antigen administration and two days after antigen administration. Observation of the onset was performed from day 14 to day 28 after primary antigen administration. The onset was scored based on the following standard criteria [Pettinelli, C. B., Fritz, D. E., and McFarlin, D. E. J. Immunl., 129, No. 3, 1024-1028 (1982)]. In Table 3, values of average score + standard deviation (SD) in each administration group on day 22, day 25 and day 28 after primary antigen administration are shown.

[3] = compared with Peptide (I) administered group
[4] = compared with the non-administered group and Peptide (I) administered group
[5] = Example 8, compared with the non-administered group and Peptide (I) administered group
[6] = Example 8, compared with Peptide (I) administered group

Row | Compound | Anti-OVA antibody titer ([1]; Example 8, 8 mice per group) | antibody production (anti-KLH) [2, 3] | Anti-KLH antibody titer (unit ± SD) [2] | Anti-KLH IgG antibody titer (unit ± SD) [2] | also measured
1 | AKLTFGKA [Peptide (XII)] | 50.9 ± 26.7 | not suppressed | 49.5 ± 40.1 unit |  | 
2 | AKLTFGKGT [Peptide (I)] | 23.8 ± 12.4 |  | 39.5 ± 16.1 unit | 78.7 ± 28.3 unit | antibody production (anti-OVA) ([1]; Example 2, compared with the non-administered group): significantly suppressed; Anti OVA Ig-G antibody titer (unit) ([1]; Example 2, subcutaneously day 5 and day 3 prior to OVA, blood day 21 after antigen, 8 mice per group, mean ± spread): 8.8 ± 10.8 unit; average score ± SD (EAE model mice; 1 µg/body subcutaneously, Day 22 after primary antigen administration): 1.6 ± 1.8; average score ± SD (EAE model mice; 1 µg/body subcutaneously, Day 25 after primary antigen administration): 0.9 ± 1.1; average score ± SD (EAE model mice; 1 µg/body subcutaneously, Day 28 after primary antigen administration): 1.8 ± 1.9; onset of EAE (EAE model mice; 5 µg/body group compared with the physiological saline group): suppressed on day 25 and day 28 with a significant difference of 5%; average score ± SD (EAE model mice; 5 µg/body subcutaneously, Day 22 after primary antigen administration): 0.4 ± 0.7; average score ± SD (EAE model mice; 5 µg/body subcutaneously, Day 25 after primary antigen administration): 1.0 ± 1.1; average score ± SD (EAE model mice; 5 µg/body subcutaneously, Day 28 after primary antigen administration): 0.7 ± 0.8; onset of EAE (EAE model mice; 25 µg/body group compared with the physiological saline group, from day 22): suppressed from day 22 with a significant difference of 5%; onset of EAE (EAE model mice; 25 µg/body group compared with the physiological saline group, from day 25): suppressed with a significant difference of 1%; average score ± SD (EAE model mice; 25 µg/body subcutaneously, Day 22 after primary antigen administration): 0.3 ± 0.4; average score ± SD (EAE model mice; 25 µg/body subcutaneously, Day 25 after primary antigen administration): 0.1 ± 0.3; average score ± SD (EAE model mice; 25 µg/body subcutaneously, Day 28 after primary antigen administration): 0.0 ± 0.0; onset of EAE (EAE model mice; administration of Peptide (I), overall statement): suppressed
3 | CC(=O)N[C@H](C)C(=O)N[C@H](CCCCN)C(=O)N[C@H](CC(C)C)C(=O)N[C@@H](C(=O)N[C@H](Cc1ccccc1)C(=O)NCC(=O)N[C@H](CCCCN)C(=O)NCC(=O)N[C@@H](C(N)=O)[C@H](C)O)[C@H](C)O [Peptide (VI)] (Ac-[dA][dK][dL][dT][dF]G[dK]G[dT]-NH2) |  |  |  | 29.5 ± 19.5 unit | 
4 | AALTFGKG [Peptide (VIII)] | 65.3 ± 34.7 | not suppressed | 44.9 ± 18.1 unit |  | 
5 | AKLTFAKG [Peptide (X)] | 49.8 ± 28.4 |  | 26.5 ± 22.0 unit |  | antibody production (anti-KLH) [2, 4]: significantly suppressed
6 | KLTFGKG [Peptide (XV)] |  | not suppressed | 86.4 ± 27.8 unit |  | 
7 | AKLTFGAG [Peptide (XI)] | 15.3 ± 14.3 |  | 19.9 ± 15.9 unit |  | antibody production (anti-OVA) [1, 5]: significantly suppressed; antibody production (anti-KLH) [2, 4]: significantly suppressed
8 | AKATFGKG [Peptide (XIII)] | 193.5 ± 155.9 | not suppressed | 68.9 ± 25.1 unit |  | antibody production (anti-OVA) [1, 6]: not suppressed
9 | AKLTFGKG [Peptide (VII)] | 20.9 ± 21.4 |  | 25.9 ± 15.4 unit |  | antibody production (anti-OVA) [1, 5]: significantly suppressed; antibody production (anti-KLH) [2, 4]: significantly suppressed
10 | AKLAFGKG [Peptide (IX)] | 10.4 ± 6.3 |  | 33.9 ± 13.7 unit |  | antibody production (anti-OVA) [1, 5]: significantly suppressed; antibody production (anti-KLH) [2, 4]: significantly suppressed
11 | CC(=O)N[C@H](C)C(=O)N[C@H](CCCCN)C(=O)N[C@H](CC(C)C)C(=O)N[C@@H](C(=O)N[C@H](Cc1ccccc1)C(=O)NCC(=O)N[C@H](CCCCN)C(=O)NCC(=O)N[C@@H](C(=O)O)[C@H](C)O)[C@H](C)O [Peptide (V)] (Ac-[dA][dK][dL][dT][dF]G[dK]G[dT]-OH) |  |  |  | 37.7 ± 17.7 unit | 
12 | Ac-AKLTFGKGT [Peptide (III)] |  |  |  | 50.1 ± 25.8 unit | 
13 | CC(C)C[C@@H](NC(=O)[C@@H](CCCCN)NC(=O)[C@@H](C)N)C(=O)N[C@@H](C(=O)N[C@H](Cc1ccccc1)C(=O)NCC(=O)N[C@H](CCCCN)C(=O)NCC(=O)N[C@@H](C(=O)O)[C@H](C)O)[C@H](C)O [Peptide (II)] (H-[dA][dK][dL][dT][dF]G[dK]G[dT]-OH) |  |  |  | 48.4 ± 13.1 unit | 
14 | AKLTAGKG [Peptide (XIV)] | 90.9 ± 89.5 | not suppressed | 59.9 ± 32.8 unit |  | antibody production (anti-OVA) [1, 6]: not suppressed
